According to ChEMBL document CHEMBL3045199, “Synthesis of some (E)-6-[2-(furan-2-yl)ethenyl]-1,2,4-triazin-5-ones and their biological evaluation as antitumor agents” (2013):

What was measured:
Assay type in all cases: functional
OVCAR-3 = assay: Cytotoxicity against Homo sapiens (human) OVCAR3 cells assessed as growth inhibition at 10 uM after 24 hr; conditions: OVCAR-3, 24 h, read-out: GI
SK-OV-3 = assay: Cytotoxicity against Homo sapiens (human) SKOV3 cells after 48 hr by SRB assay; conditions: SK-OV-3, 48 h
UACC-62 [1] = assay: Cytotoxicity against Homo sapiens (human) UACC62 cells after 48 hr by SRB assay; conditions: UACC-62, 48 h
Malme-3M = assay: Cytotoxicity against Homo sapiens (human) MALME-3M cells after 48 hr by SRB assay
Hs-578T = assay: Cytotoxicity against Homo sapiens (human) Hs 578T cells after 48 hr by SRB assay
MOLT-4 = assay: Cytotoxicity against Homo sapiens (human) MOLT4 cells after 48 hr by SRB assay; conditions: MOLT-4, 48 h
CAKI-1 = assay: Cytotoxicity against Homo sapiens (human) Caki1 cells after 48 hr by SRB assay; conditions: CAKI-1, 48 h
SW-620 [2] = assay: Cytotoxicity against Homo sapiens (human) SW620 cells assessed as growth inhibition at 10 uM after 24 hr; conditions: SW-620, 24 h, read-out: GI
SNB-75 = assay: Cytotoxicity against Homo sapiens (human) SNB75 cells after 48 hr by SRB assay; conditions: SNB-75, 48 h
NCI-H460 [3] = assay: Cytotoxicity against Homo sapiens (human) NCI-H460 cells after 48 hr by SRB assay; conditions: NCI-H460, 48 h
SK-MEL-28 = assay: Cytotoxicity against Homo sapiens (human) SK-MEL-28 cells assessed as growth inhibition at 10 uM after 24 hr; conditions: SK-MEL-28, 24 h, read-out: GI
NCI-H226 = assay: Cytotoxicity against Homo sapiens (human) NCI-H226 cells assessed as growth inhibition at 10 uM after 24 hr; conditions: NCI-H226, 24 h, read-out: GI
HCC 2998 = assay: Cytotoxicity against Homo sapiens (human) HCC2998 cells after 48 hr by SRB assay; conditions: HCC 2998, 48 h
IGROV-1 = assay: Cytotoxicity against Homo sapiens (human) IGROV1 cells after 48 hr by SRB assay; conditions: IGROV-1, 48 h
A498 = assay: Cytotoxicity against Homo sapiens (human) A498 cells after 48 hr by SRB assay; conditions: A498, 48 h
A549 = assay: Cytotoxicity against Homo sapiens (human) A549 cells after 48 hr by SRB assay; conditions: A549, 48 h
SF-295 = assay: Cytotoxicity against Homo sapiens (human) SF295 cells after 48 hr by SRB assay; conditions: SF-295, 48 h
HCT-116 [4] = assay: Cytotoxicity against Homo sapiens (human) HCT116 cells assessed as growth inhibition at 10 uM after 24 hr; conditions: HCT-116, 24 h, read-out: GI
[5] = Cytotoxicity against Homo sapiens (human) NCI-ADR-RES cells assessed as growth inhibition at 10 uM after 24 hr; conditions: read-out: GI
CCRF-CEM [6] = assay: Cytotoxicity against Homo sapiens (human) CCRF-CEM cells after 48 hr by SRB assay
UACC-257 = assay: Cytotoxicity against Homo sapiens (human) UACC257 cells after 48 hr by SRB assay; conditions: UACC-257, 48 h
OVCAR-5 = assay: Cytotoxicity against Homo sapiens (human) OVCAR5 cells assessed as growth inhibition at 10 uM after 24 hr; conditions: OVCAR-5, 24 h, read-out: GI
CCRF-CEM [7] = assay: Cytotoxicity against Homo sapiens (human) CCRF-CEM cells assessed as growth inhibition at 10 uM after 24 hr; conditions: read-out: GI
786-0 = assay: Cytotoxicity against Homo sapiens (human) 786-0 cells after 48 hr by SRB assay; conditions: 786-0, 48 h
LOX IMVI [8] = assay: Cytotoxicity against Homo sapiens (human) LOXIMVI cells after 48 hr by SRB assay
NCI-H460 [9] = assay: Cytotoxicity against Homo sapiens (human) NCI-H460 cells assessed as growth inhibition at 10 uM after 24 hr; conditions: NCI-H460, 24 h, read-out: GI
M14 = assay: Cytotoxicity against Homo sapiens (human) M14 cells assessed as growth inhibition at 10 uM after 24 hr; conditions: M14, 24 h, read-out: GI
HCT-116 [10] = assay: Cytotoxicity against Homo sapiens (human) HCT116 cells after 48 hr by SRB assay; conditions: HCT-116, 48 h
LOX IMVI [11] = assay: Cytotoxicity against Homo sapiens (human) LOXIMVI cells assessed as growth inhibition at 10 uM after 24 hr; conditions: read-out: GI
EKVX = assay: Cytotoxicity against Homo sapiens (human) EKVX cells after 48 hr by SRB assay
NCI-H23 = assay: Cytotoxicity against Homo sapiens (human) NCI-H23 cells after 48 hr by SRB assay; conditions: NCI-H23, 48 h
K562 = assay: Cytotoxicity against Homo sapiens (human) K562 cells assessed as growth inhibition at 10 uM after 24 hr; conditions: K562, 24 h, read-out: GI
BT-549 = assay: Cytotoxicity against Homo sapiens (human) BT549 cells after 48 hr by SRB assay; conditions: BT-549, 48 h
UACC-62 [12] = assay: Cytotoxicity against Homo sapiens (human) UACC62 cells assessed as growth inhibition at 10 uM after 24 hr; conditions: UACC-62, 24 h, read-out: GI
SW-620 [13] = assay: Cytotoxicity against Homo sapiens (human) SW620 cells after 48 hr by SRB assay; conditions: SW-620, 48 h
[14] = Cytotoxicity against Homo sapiens (human) ovarian cancer cells after 48 hr by SRB assay; conditions: Cancer cell lines
[15] = read-out: LC50 (the source's name)

SMILES: Nc1cc(-c2ccc(Cl)cc2)nn1-c1nc(=O)c(/C=C/c2ccco2)n[nH]1
- inhibition of growth at 10 µM (OVCAR-3): 62.1%
- LC50 (SK-OV-3): > 100 µM
- TGI (SK-OV-3): 7.43 µM
- GI50 (SK-OV-3; read-out: GI50): 5.58 µM
- GI50 (SK-OV-3; read-out: pGI50 (converted)): 5.62 µM
- LC50 (concentration killing 50% of cells) (UACC-62 [1]): > 100 µM
- TGI (UACC-62 [1]): > 100 µM
- GI50 (UACC-62 [1]; read-out: GI50): 5.07 µM
- GI50 (UACC-62 [1]; read-out: pGI50 (converted)): 5.01 µM
- LC50 (Malme-3M): > 100 µM
- TGI (Malme-3M): 53.1 µM
- GI50 (Malme-3M; read-out: GI50): 11 µM
- GI50 (Malme-3M; read-out: pGI50 (converted)): 11 µM
- GI50 (Hs-578T): 8.51 µM
- TGI (MOLT-4): 18.5 µM
- GI50 (MOLT-4; read-out: GI50): 2.01 µM
- CC50 (MOLT-4; [15]): > 100 µM
- GI50 (MOLT-4; read-out: pGI50 (converted)): 2 µM
- LC50 (CAKI-1): > 100 µM
- TGI (CAKI-1): 4.6 µM
- GI50 (CAKI-1; read-out: GI50): 0.37 µM
- GI50 (CAKI-1; read-out: pGI50 (converted)): 0.372 µM
- inhibition of growth at 10 µM (SW-620 [2]): 50.8%
- TGI (SNB-75): 37.2 µM
- GI50 (SNB-75; read-out: GI50): 10.6 µM
- CC50 (SNB-75; [15]): > 100 µM
- GI50 (SNB-75; read-out: pGI50 (converted)): 10.7 µM
- TGI (NCI-H460 [3]): 13.9 µM
- GI50 (NCI-H460 [3]; read-out: GI50): 1.88 µM
- CC50 (NCI-H460 [3]; [15]): > 100 µM
- GI50 (NCI-H460 [3]; read-out: pGI50 (converted)): 1.86 µM
- inhibition of growth at 10 µM (SK-MEL-28): 33.6%
- inhibition of growth at 10 µM (NCI-H226): 52.6%
- TGI (HCC 2998): > 100 µM
- GI50 (HCC 2998; read-out: GI50): 5.59 µM
- CC50 (HCC 2998; [15]): > 100 µM
- GI50 (HCC 2998; read-out: pGI50 (converted)): 5.62 µM
- LC50 (concentration killing 50% of cells) (IGROV-1): > 100 µM
- TGI (IGROV-1): 37.8 µM
- GI50 (IGROV-1; read-out: GI50): 4.89 µM
- GI50 (IGROV-1; read-out: pGI50 (converted)): 4.9 µM
- LC50 (A498): > 100 µM
- TGI (A498): 6.62 µM
- GI50 (A498; read-out: GI50): 1.62 µM
- GI50 (A498; read-out: pGI50 (converted)): 1.62 µM
- LC50 (A549): > 100 µM
- TGI (A549): 34.2 µM
- GI50 (A549; read-out: GI50): 3.48 µM
- GI50 (A549; read-out: pGI50 (converted)): 3.47 µM
- TGI (SF-295): 24.3 µM
- GI50 (SF-295; read-out: GI50): 1.58 µM
- CC50 (SF-295; [15]): > 100 µM
- GI50 (SF-295; read-out: pGI50 (converted)): 1.58 µM
- inhibition of growth at 10 µM (HCT-116 [4]): 59%
- inhibition of growth at 10 µM [5]: 94.3%
- LC50 (CCRF-CEM [6]): > 100 µM
- TGI (CCRF-CEM [6]): 16.8 µM
- GI50 (CCRF-CEM [6]; read-out: GI50): 2.88 µM
- GI50 (CCRF-CEM [6]; read-out: pGI50 (converted)): 2.88 µM
- LC50 (UACC-257): > 100 µM
- TGI (UACC-257): 71.8 µM
- GI50 (UACC-257; read-out: GI50): 6.59 µM
- GI50 (UACC-257; read-out: pGI50 (converted)): 6.61 µM
- inhibition of growth at 10 µM (OVCAR-5): 39.1%
- inhibition of growth at 10 µM (CCRF-CEM [7]): 66.1%
- LC50 (786-0): > 100 µM
- TGI (786-0): 21.2 µM
- GI50 (786-0; read-out: GI50): 3.98 µM
- GI50 (786-0; read-out: pGI50 (converted)): 3.98 µM
- TGI (LOX IMVI [8]): 73.4 µM
- GI50 (LOX IMVI [8]; read-out: GI50): 6.69 µM
- CC50 (LOX IMVI [8]; [15]): > 100 µM
- GI50 (LOX IMVI [8]; read-out: pGI50 (converted)): 6.76 µM
- inhibition of growth at 10 µM (NCI-H460 [9]): 79.6%
- inhibition of growth at 10 µM (M14): 42.6%
- TGI (HCT-116 [10]): 15.6 µM
- GI50 (HCT-116 [10]; read-out: GI50): 2.92 µM
- CC50 (HCT-116 [10]; [15]): > 100 µM
- GI50 (HCT-116 [10]; read-out: pGI50 (converted)): 2.88 µM
- inhibition of growth at 10 µM (LOX IMVI [11]): 50.1%
- TGI (EKVX): 31.1 µM
- GI50 (EKVX; read-out: GI50): 3.57 µM
- CC50 (EKVX; [15]): > 100 µM
- GI50 (EKVX; read-out: pGI50 (converted)): 3.55 µM
- TGI (NCI-H23): 53.9 µM
- GI50 (NCI-H23; read-out: GI50): 5.13 µM
- CC50 (NCI-H23; [15]): > 100 µM
- GI50 (NCI-H23; read-out: pGI50 (converted)): 5.13 µM
- inhibition of growth at 10 µM (K562): 58.3%
- TGI (BT-549): 43.8 µM
- GI50 (BT-549; read-out: GI50): 4.42 µM
- CC50 (BT-549; [15]): > 100 µM
- GI50 (BT-549; read-out: pGI50 (converted)): 4.47 µM
- inhibition of growth at 10 µM (UACC-62 [12]): 47.5%
- TGI (SW-620 [13]): > 100 µM
- GI50 (SW-620 [13]; read-out: GI50): 5.02 µM
- CC50 (SW-620 [13]; [15]): > 100 µM
- GI50 (SW-620 [13]; read-out: pGI50 (converted)): 5.01 µM
- GI50 [14]: 3.8 µM
- TGI [14]: 43.1 µM
- CC50 [14, 15]: 89.7 µM

SMILES: O=c1[nH]cc(F)c(=O)[nH]1 [FLUOROURACIL]
- GI50 (SK-OV-3; read-out: pGI50 (converted)): 158 µM
- GI50 (UACC-62 [1]; read-out: pGI50 (converted)): 12.6 µM
- GI50 (Malme-3M; read-out: pGI50 (converted)): 20 µM
- GI50 (Hs-578T): 251 µM
- GI50 (MOLT-4; read-out: pGI50 (converted)): 12.6 µM
- GI50 (CAKI-1; read-out: pGI50 (converted)): 3.98 µM
- GI50 (SNB-75; read-out: pGI50 (converted)): 200 µM
- GI50 (NCI-H460 [3]; read-out: pGI50 (converted)): 1 µM
- GI50 (HCC 2998; read-out: pGI50 (converted)): 1.58 µM
- GI50 (IGROV-1; read-out: pGI50 (converted)): 12.6 µM
- GI50 (A498; read-out: pGI50 (converted)): 10 µM
- GI50 (A549; read-out: pGI50 (converted)): 2 µM
- GI50 (SF-295; read-out: pGI50 (converted)): 50.1 µM
- GI50 (CCRF-CEM [6]; read-out: pGI50 (converted)): 31.6 µM
- GI50 (UACC-257; read-out: pGI50 (converted)): 100 µM
- GI50 (786-0; read-out: pGI50 (converted)): 12.6 µM
- GI50 (LOX IMVI [8]; read-out: pGI50 (converted)): 6.31 µM
- GI50 (HCT-116 [10]; read-out: pGI50 (converted)): 3.98 µM
- GI50 (EKVX; read-out: pGI50 (converted)): 316 µM
- GI50 (NCI-H23; read-out: pGI50 (converted)): 12.6 µM
- GI50 (BT-549; read-out: pGI50 (converted)): 100 µM
- GI50 (SW-620 [13]; read-out: pGI50 (converted)): 25.1 µM
